Experimental data from ChEMBL document CHEMBL3885861, “Open TG-GATES”.

Species: Rattus norvegicus
Test: Open TG-GATES - Regimen: Single
Assay type: toxicity, organism-based, Sprague-Dawley
Parameters: regimen Single, gender Male, age 6 weeks
Conditions: in vivo, po, 30 mg/kg, route gavage, dose level Low; for APTT / Bas / Eos / Fbg / Hb / Ht / Lym / MCH / MCHC / MCV / Mono / Neu / PT / Plat / RBC / Ret / WBC: tissue Blood; for KIDNEY_L / KIDNEY_R / KIDNEY_TOTAL: tissue Kidney; for LIVER: tissue Liver; for A/G / ALP / ALT / AST / BUN / CRE / Ca / Cl / DBIL / GLC / IP / K / LDH / Na / PL / RALB / TBIL / TC / TG / TP / gamma-GTP: tissue Plasma

Compound: C[C@]12CCC(=O)C=C1CC[C@@H]1[C@@H]2CC[C@@]2(C)[C@H]1CC[C@]2(C)O [METHYLTESTOSTERONE]
- TERMINAL_BW (3 h): 203.4 g
- APTT (3 h): 15.6 s
- Bas (3 h): 0%
- Eos (3 h): 1%
- Fbg (3 h): 292.4 mg/dL
- Hb (3 h): 12.7 g/dL
- Ht (3 h): 37.1%
- Lym (3 h): 77%
- MCH (3 h): 21.2 pg
- MCHC (3 h): 34.2%
- MCV (3 h): 61.9 fL
- Mono (3 h): 3.8%
- Neu (3 h): 17%
- PT (3 h): 13.1 s
- Plat (3 h): 105.6 x10_4/uL
- RBC (3 h): 599 x10_4/ul
- Ret (3 h): 8.5%
- WBC (3 h): 69.9 x10_2/uL
- KIDNEY_L (3 h): 0.9 g
- KIDNEY_R (3 h): 0.9 g
- KIDNEY_TOTAL (3 h): 1.8 g
- LIVER (3 h): 8.6 g
- A/G (3 h): 0.9
- ALP (3 h): 1715.8 IU/L
- ALT (3 h): 48.8 IU/L
- AST (3 h): 82.6 IU/L
- BUN (3 h): 9.8 mg/dL
- CRE (3 h): 0.2 mg/dL
- Ca (3 h): 11 mg/dL
- Cl (3 h): 106 meq/L
- DBIL (3 h): 0.012 mg/dL
- GLC (3 h): 181.8 mg/dL
- IP (3 h): 9.1 mg/dL
- K (3 h): 4.4 meq/L
- LDH (3 h): 76.6 IU/L
- Na (3 h): 141.4 meq/L
- PL (3 h): 131 mg/dL
- RALB (3 h): 2.5 g/dL
- TBIL (3 h): 0.048 mg/dL
- TC (3 h): 72.8 mg/dL
- TG (3 h): 41.8 mg/dL
- TP (3 h): 5.4 g/dL
- gamma-GTP (3 h): 1 IU/L
- TERMINAL_BW (6 h): 202.1 g
- APTT (6 h): 17 s
- Bas (6 h): 0.2%
- Eos (6 h): 1%
- Fbg (6 h): 281 mg/dL
- Hb (6 h): 13.2 g/dL
- Ht (6 h): 38.6%
- Lym (6 h): 74.8%
- MCH (6 h): 21.4 pg
- MCHC (6 h): 34.1%
- MCV (6 h): 62.9 fL
- Mono (6 h): 3%
- Neu (6 h): 20.8%
- PT (6 h): 13.3 s
- Plat (6 h): 112.5 x10_4/uL
- RBC (6 h): 614.8 x10_4/ul
- Ret (6 h): 8.1%
- WBC (6 h): 69.8 x10_2/uL
- KIDNEY_L (6 h): 0.9 g
- KIDNEY_R (6 h): 0.9 g
- KIDNEY_TOTAL (6 h): 1.8 g
- LIVER (6 h): 8 g
- A/G (6 h): 0.9
- ALP (6 h): 1451.8 IU/L
- ALT (6 h): 44.8 IU/L
- AST (6 h): 77.4 IU/L
- BUN (6 h): 9.4 mg/dL
- CRE (6 h): 0.2 mg/dL
- Ca (6 h): 10.7 mg/dL
- Cl (6 h): 107.2 meq/L
- DBIL (6 h): 0.01 mg/dL
- GLC (6 h): 181 mg/dL
- IP (6 h): 10 mg/dL
- K (6 h): 4.2 meq/L
- LDH (6 h): 68.2 IU/L
- Na (6 h): 142.2 meq/L
- PL (6 h): 120.8 mg/dL
- RALB (6 h): 2.6 g/dL
- TBIL (6 h): 0.042 mg/dL
- TC (6 h): 70.6 mg/dL
- TG (6 h): 32.8 mg/dL
- TP (6 h): 5.4 g/dL
- gamma-GTP (6 h): 1.2 IU/L
- TERMINAL_BW (9 h): 203.1 g
- APTT (9 h): 16.9 s
- Bas (9 h): 0%
- Eos (9 h): 1%
- Fbg (9 h): 287.4 mg/dL
- Hb (9 h): 13.2 g/dL
- Ht (9 h): 38.3%
- Lym (9 h): 77.2%
- MCH (9 h): 21.4 pg
- MCHC (9 h): 34.6%
- MCV (9 h): 61.7 fL
- Mono (9 h): 2.6%
- Neu (9 h): 18.4%
- PT (9 h): 13.3 s
- Plat (9 h): 113.2 x10_4/uL
- RBC (9 h): 620.8 x10_4/ul
- Ret (9 h): 8.2%
- WBC (9 h): 66.5 x10_2/uL
- KIDNEY_L (9 h): 0.9 g
- KIDNEY_R (9 h): 0.9 g
- KIDNEY_TOTAL (9 h): 1.7 g
- LIVER (9 h): 7.8 g
- A/G (9 h): 0.9
- ALP (9 h): 1527.6 IU/L
- ALT (9 h): 39.2 IU/L
- AST (9 h): 74.6 IU/L
- BUN (9 h): 8.8 mg/dL
- CRE (9 h): 0.2 mg/dL
- Ca (9 h): 10.6 mg/dL
- Cl (9 h): 107.6 meq/L
- DBIL (9 h): 0.01 mg/dL
- GLC (9 h): 185.2 mg/dL
- IP (9 h): 10.9 mg/dL
- K (9 h): 3.9 meq/L
- LDH (9 h): 65.6 IU/L
- Na (9 h): 142.8 meq/L
- PL (9 h): 120 mg/dL
- RALB (9 h): 2.6 g/dL
- TBIL (9 h): 0.054 mg/dL
- TC (9 h): 68.4 mg/dL
- TG (9 h): 26 mg/dL
- TP (9 h): 5.4 g/dL
- gamma-GTP (9 h): 1.6 IU/L
- TERMINAL_BW (24 h): 208 g
- APTT (24 h): 19.7 s
- Bas (24 h): 0%
- Eos (24 h): 0.8%
- Fbg (24 h): 277 mg/dL
- Hb (24 h): 13 g/dL
- Ht (24 h): 37.9%
- Lym (24 h): 77%
- MCH (24 h): 21 pg
- MCHC (24 h): 34.2%
- MCV (24 h): 61.3 fL
- Mono (24 h): 2.8%
- Neu (24 h): 19%
- PT (24 h): 13.1 s
- Plat (24 h): 120.3 x10_4/uL
- RBC (24 h): 619.4 x10_4/ul
- Ret (24 h): 7.5%
- WBC (24 h): 80.6 x10_2/uL
- KIDNEY_L (24 h): 0.9 g
- KIDNEY_R (24 h): 0.9 g
- KIDNEY_TOTAL (24 h): 1.8 g
- LIVER (24 h): 9.4 g
- A/G (24 h): 0.9
- ALP (24 h): 1796.2 IU/L
- ALT (24 h): 55.8 IU/L
- AST (24 h): 81.2 IU/L
- BUN (24 h): 13.8 mg/dL
- CRE (24 h): 0.2 mg/dL
- Ca (24 h): 11.1 mg/dL
- Cl (24 h): 106.8 meq/L
- DBIL (24 h): 0.016 mg/dL
- GLC (24 h): 184.6 mg/dL
- IP (24 h): 8.3 mg/dL
- K (24 h): 4.1 meq/L
- LDH (24 h): 82 IU/L
- Na (24 h): 141.4 meq/L
- PL (24 h): 134.2 mg/dL
- RALB (24 h): 2.7 g/dL
- TBIL (24 h): 0.028 mg/dL
- TC (24 h): 68.2 mg/dL
- TG (24 h): 84.2 mg/dL
- TP (24 h): 5.7 g/dL
- gamma-GTP (24 h): 1 IU/L
